Measured values: patent US11572296B1, “Method for extending time of activity of chlorite-based biocides” (priority 2020, dated 2023)

Experiments:
[1] = test system: bacteria; assay: Antimicrobial activity of oxychloro species (general properties); conditions: treated water, component of the formulation
Source text: The potency and longevity of biocidal activity for this formulation is controlled by varying the ratios of chlorate and acid which provide different profiles of the antimicrobial activities.

[2] = test system: bacteria; conditions: properties of oxychloro species; cited from earlier work

Row | Compound | time range of antimicrobial impact / longevity [1] | Biocidal potency [2]
1 | Chlorine dioxide [ClO2] | within seconds | 
2 | sodium chlorite | hours to days | 
3 | [O-][Cl+2]([O-])O [ClO3^−, Chlorate ion] |  | low
4 | [Na+].[O-][Cl+2]([O-])[O-] [sodium chlorate] | weeks to months | 
